In ChEMBL document CHEMBL3991601, “The target landscape of clinical kinase drugs” (Science, 2017):
Calls of active or inactive are those of the source.

Columns and labels:
[1] = target: Casein kinase I isoform epsilon (Homo sapiens, UniProt P49674)
[2] = target: Obg-like ATPase 1 (Homo sapiens, UniProt Q9NTK5)
[3] = target: Activin receptor type-2B (Homo sapiens, UniProt Q13705)
[4] = target: T1, Scaffold protein ILK (Homo sapiens, UniProt Q13418)
T1 sequence (Q13418 whole entry): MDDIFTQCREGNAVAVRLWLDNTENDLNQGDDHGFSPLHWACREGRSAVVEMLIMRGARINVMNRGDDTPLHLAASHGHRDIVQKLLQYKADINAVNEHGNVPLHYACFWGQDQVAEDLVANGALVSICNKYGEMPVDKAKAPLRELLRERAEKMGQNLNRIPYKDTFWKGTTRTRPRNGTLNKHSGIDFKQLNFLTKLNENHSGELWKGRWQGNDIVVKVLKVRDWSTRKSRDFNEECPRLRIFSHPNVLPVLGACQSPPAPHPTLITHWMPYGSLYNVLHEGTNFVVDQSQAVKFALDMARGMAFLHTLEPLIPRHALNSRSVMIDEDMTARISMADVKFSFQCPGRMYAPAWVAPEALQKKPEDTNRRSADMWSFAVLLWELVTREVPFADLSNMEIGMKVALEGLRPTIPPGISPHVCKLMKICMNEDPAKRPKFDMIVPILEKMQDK

[5] = target: Serine/threonine-protein kinase 16 (Homo sapiens, UniProt O75716)
[6] = target: TGF-beta receptor type-2 (Homo sapiens, UniProt P37173)
[7] = target: T2, Serine/threonine-protein kinase Nek9 (Homo sapiens, UniProt Q8TD19)
T2 sequence (Q8TD19 whole entry): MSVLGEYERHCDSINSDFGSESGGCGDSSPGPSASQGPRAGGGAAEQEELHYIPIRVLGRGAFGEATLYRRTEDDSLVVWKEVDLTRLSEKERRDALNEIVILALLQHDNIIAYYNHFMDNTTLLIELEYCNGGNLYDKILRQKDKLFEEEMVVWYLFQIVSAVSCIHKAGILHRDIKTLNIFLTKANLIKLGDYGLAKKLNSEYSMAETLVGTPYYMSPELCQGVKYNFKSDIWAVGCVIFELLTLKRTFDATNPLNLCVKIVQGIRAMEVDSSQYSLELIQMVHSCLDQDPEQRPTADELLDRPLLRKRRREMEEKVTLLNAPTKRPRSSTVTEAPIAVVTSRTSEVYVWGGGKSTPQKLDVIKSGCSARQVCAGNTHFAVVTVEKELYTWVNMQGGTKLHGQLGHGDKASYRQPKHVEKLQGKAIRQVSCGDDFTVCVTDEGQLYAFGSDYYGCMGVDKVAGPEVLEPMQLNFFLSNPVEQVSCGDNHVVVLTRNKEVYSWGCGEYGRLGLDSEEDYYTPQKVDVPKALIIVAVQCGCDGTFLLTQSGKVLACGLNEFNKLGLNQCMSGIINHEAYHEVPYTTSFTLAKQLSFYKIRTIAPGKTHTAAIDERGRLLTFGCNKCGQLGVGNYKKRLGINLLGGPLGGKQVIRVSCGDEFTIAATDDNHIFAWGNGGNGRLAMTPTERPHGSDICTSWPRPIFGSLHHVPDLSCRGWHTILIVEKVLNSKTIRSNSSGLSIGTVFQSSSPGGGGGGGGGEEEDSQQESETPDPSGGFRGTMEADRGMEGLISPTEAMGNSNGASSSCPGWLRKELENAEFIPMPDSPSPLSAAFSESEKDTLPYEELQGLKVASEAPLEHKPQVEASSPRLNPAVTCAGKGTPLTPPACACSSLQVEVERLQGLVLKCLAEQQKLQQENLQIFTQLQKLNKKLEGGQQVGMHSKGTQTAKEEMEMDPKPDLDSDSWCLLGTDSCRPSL

[8] = target: T3, Phosphatidylinositol 5-phosphate 4-kinase type-2 alpha (Homo sapiens, UniProt P48426)
T3 sequence (P48426 whole entry): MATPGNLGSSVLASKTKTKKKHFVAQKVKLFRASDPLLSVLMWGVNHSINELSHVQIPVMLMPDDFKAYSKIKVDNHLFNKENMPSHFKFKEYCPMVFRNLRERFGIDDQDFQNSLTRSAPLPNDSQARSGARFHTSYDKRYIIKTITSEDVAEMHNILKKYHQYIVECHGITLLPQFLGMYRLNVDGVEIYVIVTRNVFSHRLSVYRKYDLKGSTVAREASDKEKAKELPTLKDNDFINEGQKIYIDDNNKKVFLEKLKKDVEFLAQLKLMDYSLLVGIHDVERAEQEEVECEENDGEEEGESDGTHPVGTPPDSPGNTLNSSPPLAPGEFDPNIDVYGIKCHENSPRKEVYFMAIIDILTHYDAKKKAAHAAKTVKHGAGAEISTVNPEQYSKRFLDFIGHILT

[9] = target: T4, Signal recognition particle receptor subunit alpha (Homo sapiens, UniProt P08240)
T4 sequence (P08240 whole entry): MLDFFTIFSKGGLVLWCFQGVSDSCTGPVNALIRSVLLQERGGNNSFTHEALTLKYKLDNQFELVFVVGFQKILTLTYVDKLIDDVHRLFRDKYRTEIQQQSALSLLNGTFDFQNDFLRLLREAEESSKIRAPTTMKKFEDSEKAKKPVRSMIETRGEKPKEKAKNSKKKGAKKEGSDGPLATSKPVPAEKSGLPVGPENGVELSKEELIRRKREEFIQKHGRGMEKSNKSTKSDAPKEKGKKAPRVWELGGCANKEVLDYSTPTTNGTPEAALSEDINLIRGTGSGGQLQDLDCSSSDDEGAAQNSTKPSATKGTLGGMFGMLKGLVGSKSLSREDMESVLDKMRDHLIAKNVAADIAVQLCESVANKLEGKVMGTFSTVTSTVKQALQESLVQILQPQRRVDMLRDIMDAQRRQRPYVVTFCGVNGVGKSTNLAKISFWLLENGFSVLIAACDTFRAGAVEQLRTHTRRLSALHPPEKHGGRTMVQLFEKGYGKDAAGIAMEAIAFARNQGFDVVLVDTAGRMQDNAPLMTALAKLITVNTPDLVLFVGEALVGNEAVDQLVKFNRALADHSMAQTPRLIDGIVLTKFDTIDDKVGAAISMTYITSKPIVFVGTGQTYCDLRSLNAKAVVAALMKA

[10] = target: Casein kinase II subunit alpha' (Homo sapiens, UniProt P19784)
[11] = target: Serine/threonine-protein kinase pim-1 (Homo sapiens, UniProt P11309)
[12] = target: Serine/threonine-protein kinase N2 (Homo sapiens, UniProt Q16513)
Note: in the data inactive means no Kd found up to 30 µM.

Chain of TGF-beta receptor type-2 (P37173 whole entry): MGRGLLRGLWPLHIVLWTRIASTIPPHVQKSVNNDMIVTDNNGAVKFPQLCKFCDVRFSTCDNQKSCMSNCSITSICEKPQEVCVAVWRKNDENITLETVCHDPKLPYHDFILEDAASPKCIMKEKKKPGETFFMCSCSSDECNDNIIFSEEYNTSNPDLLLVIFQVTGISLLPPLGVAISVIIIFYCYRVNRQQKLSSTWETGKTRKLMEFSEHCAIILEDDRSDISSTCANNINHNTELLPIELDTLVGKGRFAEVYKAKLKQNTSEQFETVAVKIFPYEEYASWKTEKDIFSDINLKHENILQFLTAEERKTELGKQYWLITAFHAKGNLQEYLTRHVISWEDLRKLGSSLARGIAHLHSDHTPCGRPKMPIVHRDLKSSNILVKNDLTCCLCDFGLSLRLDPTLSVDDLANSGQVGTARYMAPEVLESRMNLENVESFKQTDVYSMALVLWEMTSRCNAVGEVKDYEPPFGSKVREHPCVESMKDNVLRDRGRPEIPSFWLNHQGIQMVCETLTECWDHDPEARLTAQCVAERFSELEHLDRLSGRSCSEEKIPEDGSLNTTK
Chain of Casein kinase I isoform epsilon (P49674 whole entry, canonical isoform): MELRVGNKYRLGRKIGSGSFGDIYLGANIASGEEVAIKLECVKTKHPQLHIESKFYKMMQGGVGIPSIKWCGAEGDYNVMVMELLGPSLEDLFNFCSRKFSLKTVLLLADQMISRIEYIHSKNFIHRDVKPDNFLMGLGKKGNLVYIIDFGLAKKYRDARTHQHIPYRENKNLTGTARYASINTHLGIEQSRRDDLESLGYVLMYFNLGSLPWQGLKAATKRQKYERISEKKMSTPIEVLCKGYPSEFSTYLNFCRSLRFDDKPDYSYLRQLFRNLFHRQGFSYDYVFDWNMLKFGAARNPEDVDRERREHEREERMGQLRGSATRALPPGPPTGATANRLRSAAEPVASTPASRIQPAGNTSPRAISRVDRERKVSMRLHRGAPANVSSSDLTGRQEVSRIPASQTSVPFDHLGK
Chain of Activin receptor type-2B (Q13705 whole entry): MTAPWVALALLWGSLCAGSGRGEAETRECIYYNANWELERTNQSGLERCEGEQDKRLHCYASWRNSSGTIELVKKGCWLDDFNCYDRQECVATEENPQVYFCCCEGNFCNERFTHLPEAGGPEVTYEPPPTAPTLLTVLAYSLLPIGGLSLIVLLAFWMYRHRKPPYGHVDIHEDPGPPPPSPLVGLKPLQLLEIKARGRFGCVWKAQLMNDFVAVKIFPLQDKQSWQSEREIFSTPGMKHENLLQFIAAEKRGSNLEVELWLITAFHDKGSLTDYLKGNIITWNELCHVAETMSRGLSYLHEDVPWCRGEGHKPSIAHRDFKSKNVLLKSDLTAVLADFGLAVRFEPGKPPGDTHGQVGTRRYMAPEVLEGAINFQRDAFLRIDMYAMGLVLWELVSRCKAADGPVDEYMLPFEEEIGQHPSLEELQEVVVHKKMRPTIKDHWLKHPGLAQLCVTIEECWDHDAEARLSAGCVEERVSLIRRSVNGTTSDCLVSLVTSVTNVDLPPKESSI
Chain of Serine/threonine-protein kinase pim-1 (P11309 whole entry): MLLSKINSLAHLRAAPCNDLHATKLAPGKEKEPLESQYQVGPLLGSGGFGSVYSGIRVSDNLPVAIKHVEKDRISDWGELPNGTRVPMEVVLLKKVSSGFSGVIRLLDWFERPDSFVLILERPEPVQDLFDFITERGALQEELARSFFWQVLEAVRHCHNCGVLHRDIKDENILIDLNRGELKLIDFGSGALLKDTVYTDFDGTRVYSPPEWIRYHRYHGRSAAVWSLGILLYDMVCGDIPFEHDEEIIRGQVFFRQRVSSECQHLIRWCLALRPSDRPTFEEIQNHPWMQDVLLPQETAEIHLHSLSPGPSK
Chain of Serine/threonine-protein kinase 16 (O75716 whole entry): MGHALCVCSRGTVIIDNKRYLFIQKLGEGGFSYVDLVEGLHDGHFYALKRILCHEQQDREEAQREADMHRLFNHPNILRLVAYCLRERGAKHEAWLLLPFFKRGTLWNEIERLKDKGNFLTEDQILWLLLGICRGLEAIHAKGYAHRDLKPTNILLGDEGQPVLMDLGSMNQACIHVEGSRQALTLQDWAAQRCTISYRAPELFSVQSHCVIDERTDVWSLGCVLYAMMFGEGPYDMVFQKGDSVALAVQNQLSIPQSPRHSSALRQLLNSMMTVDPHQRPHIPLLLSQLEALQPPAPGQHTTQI
Chain of Casein kinase II subunit alpha' (P19784 whole entry): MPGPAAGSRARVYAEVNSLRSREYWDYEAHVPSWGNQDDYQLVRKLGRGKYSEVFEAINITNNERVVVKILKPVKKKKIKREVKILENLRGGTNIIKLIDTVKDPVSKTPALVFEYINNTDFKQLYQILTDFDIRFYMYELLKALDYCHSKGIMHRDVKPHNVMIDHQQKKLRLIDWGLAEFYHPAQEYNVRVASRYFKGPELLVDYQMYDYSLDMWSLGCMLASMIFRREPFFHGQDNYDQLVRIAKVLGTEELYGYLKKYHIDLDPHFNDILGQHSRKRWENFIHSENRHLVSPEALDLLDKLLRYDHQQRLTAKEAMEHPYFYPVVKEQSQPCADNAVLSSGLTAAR
Chain of Serine/threonine-protein kinase N2 (Q16513 whole entry): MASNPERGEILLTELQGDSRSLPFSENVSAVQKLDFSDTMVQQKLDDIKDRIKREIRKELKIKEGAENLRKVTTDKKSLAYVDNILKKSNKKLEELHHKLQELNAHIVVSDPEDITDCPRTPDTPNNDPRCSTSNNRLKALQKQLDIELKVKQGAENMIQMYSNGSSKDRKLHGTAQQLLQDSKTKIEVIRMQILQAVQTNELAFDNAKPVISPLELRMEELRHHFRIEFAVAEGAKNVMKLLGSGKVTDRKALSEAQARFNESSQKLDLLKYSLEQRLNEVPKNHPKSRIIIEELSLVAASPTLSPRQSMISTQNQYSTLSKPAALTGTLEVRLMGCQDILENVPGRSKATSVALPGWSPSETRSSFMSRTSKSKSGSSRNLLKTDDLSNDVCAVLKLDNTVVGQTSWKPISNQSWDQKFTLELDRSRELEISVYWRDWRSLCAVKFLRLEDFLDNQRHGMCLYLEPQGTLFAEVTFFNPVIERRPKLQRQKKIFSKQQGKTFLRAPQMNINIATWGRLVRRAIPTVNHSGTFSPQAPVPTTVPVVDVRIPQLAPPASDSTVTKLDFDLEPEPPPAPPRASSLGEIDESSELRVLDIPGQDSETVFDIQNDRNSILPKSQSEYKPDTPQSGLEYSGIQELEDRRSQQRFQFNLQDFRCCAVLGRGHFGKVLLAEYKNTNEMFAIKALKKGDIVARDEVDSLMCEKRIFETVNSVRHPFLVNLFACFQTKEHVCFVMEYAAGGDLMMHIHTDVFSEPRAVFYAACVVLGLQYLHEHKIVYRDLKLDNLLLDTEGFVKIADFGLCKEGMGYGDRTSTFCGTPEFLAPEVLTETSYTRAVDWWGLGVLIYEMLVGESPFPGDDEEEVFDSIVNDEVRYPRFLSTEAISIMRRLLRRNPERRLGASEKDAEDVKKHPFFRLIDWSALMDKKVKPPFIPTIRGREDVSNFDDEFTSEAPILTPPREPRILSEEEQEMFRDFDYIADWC
Chain of Obg-like ATPase 1 (Q9NTK5 whole entry, looked up): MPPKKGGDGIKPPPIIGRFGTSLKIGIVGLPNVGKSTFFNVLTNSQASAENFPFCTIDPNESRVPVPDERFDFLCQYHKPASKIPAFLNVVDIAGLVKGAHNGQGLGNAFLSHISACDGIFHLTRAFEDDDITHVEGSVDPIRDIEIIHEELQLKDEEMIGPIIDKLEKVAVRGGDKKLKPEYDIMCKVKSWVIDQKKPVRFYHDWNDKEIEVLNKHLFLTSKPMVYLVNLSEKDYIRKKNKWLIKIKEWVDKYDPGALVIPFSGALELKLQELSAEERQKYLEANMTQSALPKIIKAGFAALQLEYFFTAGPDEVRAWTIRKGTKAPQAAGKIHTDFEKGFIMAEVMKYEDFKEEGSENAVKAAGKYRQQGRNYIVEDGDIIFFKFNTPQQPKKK

| Kd [1] | Kd [2] | Kd [3] | Kd [4] | Kd [5] | Kd [6] | Kd [8] | Kd [9] | Kd [10] | Kd [11] | Kd [12] | SMILES | Kd [7] |
| --- | --- | --- | --- | --- | --- | --- | --- | --- | --- | --- | --- | --- |
| > 30 µM (inactive) | > 30 µM (inactive) | > 30 µM (inactive) | > 30 µM (inactive) | 1.28 µM (active) | – | – | > 30 µM (inactive) | 0.065 µM (active) | > 30 µM (inactive) | 2.77 µM (active) | O=C(Nc1c[nH]nc1-c1nc2cc(CN3CCOCC3)ccc2[nH]1)NC1CC1 [AT-9283] | – |
| – | > 30 µM (inactive) | > 30 µM (inactive) | > 30 µM (inactive) | – | – | > 30 µM (inactive) | > 30 µM (inactive) | – | – | – | C[C@@H](Oc1cc(-n2cnc3ccc(CN4CCN(C)CC4)cc32)sc1C(N)=O)c1ccccc1C(F)(F)F [GSK-461364] | – |
| – | > 30 µM (inactive) | > 30 µM (inactive) | > 30 µM (inactive) | – | > 30 µM (inactive) | > 30 µM (inactive) | > 30 µM (inactive) | 2.64 µM (active) | – | – | CC(=O)NCC(=O)N1[C@@H]2CC[C@H]1c1ccc(Nc3ncc(C(F)(F)F)c(NC4CCC4)n3)cc12 [PF-03814735] | > 30 µM (inactive) |
| – | > 30 µM (inactive) | – | > 30 µM (inactive) | – | – | > 30 µM (inactive) | > 30 µM (inactive) | – | – | – | O=C(NOCCO)c1cc(CN2OCCCC2=O)c(F)c(F)c1Nc1ccc(I)cc1F [RO-4987655] | – |

Second part, the compound before the results:

| SMILES | Kd [1] | Kd [2] | Kd [3] | Kd [4] | Kd [5] | Kd [6] | Kd [8] | Kd [9] | Kd [10] | Kd [11] | Kd [12] | Kd [7] |
| --- | --- | --- | --- | --- | --- | --- | --- | --- | --- | --- | --- | --- |
| COc1cc(Nc2ncc3c(n2)-c2ccc(Cl)cc2C(c2c(F)cccc2OC)=NC3)ccc1C(=O)O [ALISERTIB] | > 30 µM (inactive) | > 30 µM (inactive) | > 30 µM (inactive) | > 30 µM (inactive) | > 30 µM (inactive) | > 30 µM (inactive) | > 30 µM (inactive) | > 30 µM (inactive) | – | – | – | > 30 µM (inactive) |
| Cc1nc(NC(=O)N2CCC[C@H]2C(N)=O)sc1-c1ccnc(C(C)(C)C(F)(F)F)c1 [ALPELISIB] | > 30 µM (inactive) | > 30 µM (inactive) | – | – | > 30 µM (inactive) | – | – | > 30 µM (inactive) | > 30 µM (inactive) | > 30 µM (inactive) | > 30 µM (inactive) | > 30 µM (inactive) |
| CNC(=O)c1ccccc1Sc1ccc2c(/C=C/c3ccccn3)n[nH]c2c1 [AXITINIB] | – | > 30 µM (inactive) | – | > 30 µM (inactive) | – | – | > 30 µM (inactive) | > 30 µM (inactive) | – | – | – | – |
| CC(C)(C)c1nc(-c2cccc(NS(=O)(=O)c3c(F)cccc3F)c2F)c(-c2ccnc(N)n2)s1 [DABRAFENIB] | > 30 µM (inactive) | > 30 µM (inactive) | > 30 µM (inactive) | > 30 µM (inactive) | > 30 µM (inactive) | 2.53 µM (active) | > 30 µM (inactive) | > 30 µM (inactive) | – | – | > 30 µM (inactive) | 0.053 µM (active) |
| COc1ncc(-c2ccc3nccc(-c4ccnnc4)c3c2)cc1NS(=O)(=O)c1ccc(F)cc1F [OMIPALISIB] | > 30 µM (inactive) | > 30 µM (inactive) | > 30 µM (inactive) | > 30 µM (inactive) | > 30 µM (inactive) | > 30 µM (inactive) | > 30 µM (inactive) | > 30 µM (inactive) | > 30 µM (inactive) | – | > 30 µM (inactive) | > 30 µM (inactive) |
| CN1CCN(CCOc2cc(OC3CCOCC3)c3c(Nc4c(Cl)ccc5c4OCO5)ncnc3c2)CC1 [SARACATINIB] | > 30 µM (inactive) | – | 3.88 µM (active) | > 30 µM (inactive) | > 30 µM (inactive) | > 30 µM (inactive) | > 30 µM (inactive) | > 30 µM (inactive) | > 30 µM (inactive) | > 30 µM (inactive) | > 30 µM (inactive) | > 30 µM (inactive) |
| CN1C/C=C/CCOc2cccc(c2)-c2ccnc(n2)Nc2cccc(c2)C1 [ZOTIRACICLIB] | > 30 µM (inactive) | – | > 30 µM (inactive) | > 30 µM (inactive) | > 30 µM (inactive) | > 30 µM (inactive) | > 30 µM (inactive) | > 30 µM (inactive) | 2.3 µM (active) | > 30 µM (inactive) | 0.141 µM | > 30 µM (inactive) |
